According to patent publication US20060189539A1, “Novel GnRH analogues with antitumour effects and pharmaceutical compositions thereof” (priority 1994, published 2006):
Non-standard residues stand in square brackets, D forms with d. Residues, ends and D or L forms follow the SMILES beside them. Groups on a side chain read outwards from the residue. *: point of attachment. dPhe(4-Cl) = N[C@H](Cc1ccc(Cl)cc1)C(=O)O; NEt2 = CCN(CC)*

Columns and labels:
[1] = test system: Ishikawa human endometrium carcinoma cell line; assay: Inhibition of colony formation (dose-survival), Example 18; type: cell-based; conditions: 50 μM
Description: (§1) Human cell lines used in in vitro experiments. MCF-7 human mammary tumour cell line was stabilized in 1973 by Soule et al. from the pleural fluid of mammary carcinoma patients. The cells grow in monolayer and are epithelial in their character. MDA-MB-231 human mammary carcinoma cell line was isolated and stabilized in 1974 by Cailleau et al. similarly from pleural fluid. These cells also grow in monolayer. PC3 human prostate carcinoma cell line was stabilized 20 in 1979 in cell culture by Kaighn et al.; the cells are of simple epithelium type and form compact colonies in clonogenic assays. Ishikawa cell line originated from adenocarcinoma of human endometrium [Nishida et al.: Obstet. Gynecol. Jpn, 37, 25 1103-1111 (1985)], has epithelial character and contains steroid as well as GnRH receptors. Human tumour cell lines are maintained in plastic flasks (Greiner) in Dulbecco-6modified Eagle-MEM (DMEM GIBCO) nutritive medium. The medium used herein contained 10% of fetal calf serum (FCS).
(§2) In the case of cytostatics the cell-damaging effect is not cell-specific. […] One part of the arrested cells again go into the cycle, the other part may perish (apoptosis). […] The investigations were carried out on MCF-7 and MDA-MB-231 human mammary carcinoma cell lines, PC3 human prostate 15 carcinoma cell line and Ishikawa human endometrium carcinoma cell line. Threehundred cells were set into Petri dishes of 3.5 cm in diameter each. The treatment was carried out once, 24 hours following the explantation, then the colonies formed were counted after 9 to 12 days.

[2] = test system: MCF-7 human mammary carcinoma cell line; assay: as above; type: cell-based; conditions: 50 μM
Description: as §1, §2

[3] = test system: MDA-MB-231 human mammary carcinoma cell line; assay: as above; type: cell-based; conditions: 50 μM
Description: as §1, §2

[4] = test system: PC3 human prostate carcinoma cell line; assay: as above; type: cell-based
Description: as §1, §2

[5] = test system: MCF-7 human mammary carcinoma cell line; assay: Inhibition of colony formation (dose-survival), Example 48; type: cell-based; conditions: 50 μM
Description: MCF-7 human mammary carcinoma cell line was stabilized in 1973 by Soule et al. from the pleural fluid of a patient suffering from mammary carcinoma. MDA-MB-231 human mammary carcinoma cell line was isolated and stabilized by Cailleau et al. in 1974 similarly from pleural fluid. Both cell lines grow in monolayer. […] MCF-7 cell line is estradiol receptor (ER)-positive containing proteins specifically binding GnRH. Thus, it represents, a useful model system for investigating the direct effect of GnRH mediated by the GnRH receptor. Being ER-negative and GnRH receptor-positive, MDA-MB-231 cell line is similarly suitable to study the direct effect of GnRH. PC3 human prostate carcinoma cell line was stabilized in cell culture by Kaighn et al. in 1979. The cells are of epithelial type and form compact colonies in clonogenic assays. The Ishikawa cell line originates from human endometrial adenocarcinoma [M. Nishida et al.: Acta Obstet. Gynecol. Jpn. 37, 1103-1111 (1985)], it is epithelial in its character and contains steroid-as well as GnRH receptors. The examination gives accurate information about the cell-damaging effect of the substance tested as a function of varying doses. The treatment was carried out once; the colonies formed from the surviving cells were counted after 8-12 days. […] A part of the arrested cells again entered the cycle, an other part of them might be destroyed (apoptosis). […] The treatment was once carried out 24 hours after setting, then the colonies formed were counted after 8-12 days. The cells were treated once after 24 hours with 1-50 μM of various GnRH analogues of Examples above or with 1-50 μM of GnRH-III, respectively. The percentages of inhibition obtained on MCF-7, MDA-MB-231, PC3 and Ishikawa cells, respectively, together with the dose of the active agent used are shown in Table VIII.

[6] = test system: MDA-MB-231 human mammary carcinoma cell line; assay: as above; type: cell-based
Description: (§3) MCF-7 human mammary carcinoma cell line was stabilized in 1973 by Soule et al. from the pleural fluid of a patient suffering from mammary carcinoma. MDA-MB-231 human mammary carcinoma cell line was isolated and stabilized by Cailleau et al. in 1974 similarly from pleural fluid. Both cell lines grow in monolayer. MCF-7 and MDA-MB-231 human mammary carcinoma cell lines are maintained in plastic flasks (Greiner), in Dulbecco-modified Eagle-MEM (DMEM, GIBCO) liquid nutrient medium containing 10% of fetal calf serum. MCF-7 cell line is estradiol receptor (ER)-positive containing proteins specifically binding GnRH. Thus, it represents, a useful model system for investigating the direct effect of GnRH mediated by the GnRH receptor. Being ER-negative and GnRH receptor-positive, MDA-MB-231 cell line is similarly suitable to study the direct effect of GnRH. PC3 human prostate carcinoma cell line was stabilized in cell culture by Kaighn et al. in 1979. The cells are of epithelial type and form compact colonies in clonogenic assays. The Ishikawa cell line originates from human endometrial adenocarcinoma [M. Nishida et al.: Acta Obstet. Gynecol. Jpn. 37, 1103-1111 (1985)], it is epithelial in its character and contains steroid-as well as GnRH receptors.
(§4) The examination gives accurate information about the cell-damaging effect of the substance tested as a function of varying doses. The treatment was carried out once; the colonies formed from the surviving cells were counted after 8-12 days. […] A part of the arrested cells again entered the cycle, an other part of them might be destroyed (apoptosis). […] In the case of a dose-response investigation, colonies containing less than 15 cells were not counted. 300 cells were put into each Petri dishes of 3.5 cm in diameter. The treatment was once carried out 24 hours after setting, then the colonies formed were counted after 8-12 days. The cells were treated once after 24 hours with 1-50 μM of various GnRH analogues of Examples above or with 1-50 μM of GnRH-III, respectively. The percentages of inhibition obtained on MCF-7, MDA-MB-231, PC3 and Ishikawa cells, respectively, together with the dose of the active agent used are shown in Table VIII.

[7] = test system: Ishikawa endometrium tumour cell culture; assay: as above; type: cell-based, human; conditions: 50 μM
Description: as §3, §4

[8] = test system: PC3 prostate tumour cell culture; assay: as above; type: cell-based, human
Description: as §3, §4

human tumor cell lines = assay: Colony formation, Example 48, comparison with control D-Trp6-hGnRH; type: cell-based; conditions: data of Table VIII
Method: as §4
In these studies the D-Trp6-hGnRH analogue (Sigma Co.) commonly used in the tumour therapy was employed as control.

MCF-7 xenograft = assay: In vivo antitumour effect on MCF-7 xenograft; parameters: species or system immunosuppressed CBA/Ca mice; conditions: 2 × 25 μg
Method: The immunosuppression of mice was carried out by using the method of Steel et al. (1978).
CBA/Ca female mice of about 6 weeks old were thymectomized and then, after one week, they were irradiated with 60Co (whole body irradiation; the lethal dose is 9.5 Gray). Within 24 hours 3 to 5×10^5 myelocytes were injected to the animals. Beneath the skin of the immunosuppressed mice 2×10^7 tumour cells or, in the case of later passages, about 2 mm^3 of tumour cells or in the case of later, additional passages about 2 mm^3 of tumour pieces were implanted. […] The treatment with steroid hormone was stopped by at least one week before beginning the investigation.
In the case of MCF-7 tumours (xenografts) the examinations were carried out with passages being in the phase of the 37th and 38th, respectively, transplantations.
In the case of mice bearing MCF-7 xenograft, the treatment was begun in the 4th week following xeno-transplantation.
Recent investigations have begun on 28 animals bearing MCF-7 xenograft .and on 28 animals bearing MDA-MB-231 xenograft. On animals bearing MCF-7 tumour the treatment was commenced in the 5th week following xeno-transplantation; the tumour volume was 205 to 225 mm^3. On animals bearing MDA-MB-231 tumour, the treatment was started in the 4th week after xeno-transplantation with a tumour volume of 140 to 150 mm^3. […] The control groups were daily treated with physiological saline s.c. (Each treated group consisted of 7 animals.)

B-lymphocytes = assay: Humoral immune response (antibody production of B-lymphocytes); type: in vivo, mice; conditions: for Increase of the humoral immune response: mice
T-lymphocytes = assay: Cellular immune response (rosette formation against BRBC antigen); type: in vivo, mice
Description: The immunosuppressive side effect of cytostatics used in tumour therapy is commonly known. This effect can be compensated to a certain grade by various immunostimulants (endotoxin, levamisole). Polypeptides with much […] molecular weights (about 40,000 to 80,000) are also capable of protecting against immunosuppressive effect [Gal et al.: J. Biol. Resp. Modif. 5, 148-159 (1986)). The molecular weight of the novel polyanionic P-GFLG-OH macromolecule tested by us is about 10,000, that of MI-1892 is about 2000, i.e. relatively low; therefore, their immunostimulatory activity was unexpected.

[9] = test system: Ishikawa human endometrium tumour cells; conditions: 30 μM of active substance, conjugate, treated once
Description: The procedure of treatment was as follows. After trypsinization the cells, 400,000 cells of MCF-7, MDA-MB-231 human mammary carcinoma, PC3 human prostate carcinoma or Ishikawa human endometrium tumour each were passed into Petri dishes of 10 cm in diameter. […]

[10] = test system: PC3 human prostate carcinoma cells; assay: In vitro inhibition of cell proliferation (cell count), Example 19; type: cell-based; conditions: 30 μM of active substance, conjugate, treated once
Method: The procedure of treatment was as follows. After trypsinization the cells, 400,000 cells of MCF-7, MDA-MB-231 human mammary carcinoma, PC3 human prostate carcinoma or Ishikawa human endometrium tumour each were passed into Petri dishes of 10 cm in diameter. Starting from the day following transfer, the cells were treated with the substances to be tested in solution prepared with the nutrient medium during the exponential growth phase. […]

`NCCCC[C@H](NC(=O)[C@H](Cc1c[nH]c2ccccc12)NC(=O)[C@H](Cc1c[nH]cn1)NC(=O)[C@@H]1CCC(=O)N1)C(=O)N[C@@H](Cc1c[nH]cn1)C(=O)N[C@@H](CC(=O)O)C(=O)N[C@@H](Cc1c[nH]c2ccccc12)C(=O)N[C@@H](CCCCN)C(=O)N1CCC[C@H]1C(=O)NCC(N)=O` [Compound 6, Lys^4-GnRH-III] was tested, and the “% Inhibition of colony formation” value [1] was 21%, the “% Inhibition of colony formation” value [2] was 40% and the “% Inhibition of colony formation” value [3] was 35%. The “% Inhibition of colony formation” value ([4]; 50 μM) was “did not show any inhibition”, the “% Inhibition of colony formation” value [5] was 40% and the “% Inhibition of colony formation” value ([6]; 10 μM) was 18%. For the same compound, the “% Inhibition of colony formation” value ([6]; 50 μM) was 35%, the “% Inhibition of colony formation” value [7] was 21% and the “% Inhibition of colony formation” value ([8]; 50 μM) was 0%. The “Effect on colony-forming ability” value ([8]; within the dose range used (1-50 μM)) was “did not influence” and the “Inhibitory effect on colony formation compared with control D-Trp6-hGnRH” value (human tumor cell lines) was “exceeded the inhibitory effect of control”.
`CCN(CC)C(=O)[C@H](CC(=O)N[C@@H](CC(C)C)C(=O)N[C@@H](CCC(N)=O)C(=O)N1CCC[C@H]1C(=O)N[C@H](C)C(N)=O)NC(=O)[C@H](CCCCN)NC(=O)[C@H](CO)NC(=O)[C@@H](Cc1c[nH]c2ccccc12)NC(=O)[C@@H](Cc1ccc(Cl)cc1)NC(=O)[C@@H](Cc1c[nH]c2ccccc12)NC(C)=O` [MI-1892, Ac-D-Trp^1,3,D-Cpa^2,Lys^5,[β-Asp(DEA)]^6,D-Ala^10-hGnRH, reference compound] (Ac-[dW][dPhe(4-Cl)][dW]SKD([Leu-Gln-Pro-dA-NH2])-NEt2) was tested, and the Inhibition % (MCF-7 xenograft; week 4) was 22.5%, the Inhibition % (MCF-7 xenograft; week 6) was 21% and the “Effect on the humoral immune response” value (B-lymphocytes; dose not stated) was “strengthened”. For the same compound, the “Increase of the humoral immune response” value (B-lymphocytes; 50 μg/mouse) was “more than twofold”, the “Increase of the humoral immune response” value (B-lymphocytes; 100 μg/mouse) was “threefold” and the “Increase of the cellular immune response” value (T-lymphocytes; 100 μg/mouse) was “nearly twofold”. For the same compound, the “Effect on the cellular immune response (activity of T-lymphocytes against BRBC antigen)” value (T-lymphocytes; dose not stated) was “increased”.
In the case of “D-Phe2,D-Trp3,{D-Lys[n-poly(N-vinylpyrrolidone-co-maleic acid)-Gly-Phe-Leu-Gly-]}6.-GNRH [P-GFLG-1004]”, the “% Inhibition of colony formation” value [1] is reported as 46%, the “% Inhibition of colony formation” value ([4]; 30 μM) is reported as 100% and the “% Inhibition of cell division” value [9] is reported as 20%. The “% Inhibition of cell division” value [10] was 35% and the “% Inhibition of colony formation” value [5] was 44%.
With “{Lys[n-poly(N-vinylpyrrolidone-co-maleic acid)-Gly-Phe-Leu-Gly-]}4,-GnRH-III [P-GFLG-Lys4-GnRH-III]” the “% Inhibition of colony formation” value [1] was 25%, the “% Inhibition of colony formation” value [2] was 68% and the “% Inhibition of colony formation” value [3] was 75%. The “% Inhibition of colony formation” value ([4]; 30 μM) was 94%.
